Common to all, as to conditions: IC50 ratio showing FGFR4 selectivity
One experiment has as its target FGFR2 (Homo sapiens (Human), UniProt P21802). In words: FGFR Enzymatic Assay (FRET peptide phosphorylation), FGFR2.
The target of the next experiment is FGFR3 (Homo sapiens (Human), UniProt P22607). In words: FGFR Enzymatic Assay (FRET peptide phosphorylation), FGFR3.
In the next experiment the target is FGFR1 (Homo sapiens (Human), UniProt P11362). In words: FGFR Enzymatic Assay (FRET peptide phosphorylation), FGFR1.
Sequence of FGFR1 (P11362 22-822): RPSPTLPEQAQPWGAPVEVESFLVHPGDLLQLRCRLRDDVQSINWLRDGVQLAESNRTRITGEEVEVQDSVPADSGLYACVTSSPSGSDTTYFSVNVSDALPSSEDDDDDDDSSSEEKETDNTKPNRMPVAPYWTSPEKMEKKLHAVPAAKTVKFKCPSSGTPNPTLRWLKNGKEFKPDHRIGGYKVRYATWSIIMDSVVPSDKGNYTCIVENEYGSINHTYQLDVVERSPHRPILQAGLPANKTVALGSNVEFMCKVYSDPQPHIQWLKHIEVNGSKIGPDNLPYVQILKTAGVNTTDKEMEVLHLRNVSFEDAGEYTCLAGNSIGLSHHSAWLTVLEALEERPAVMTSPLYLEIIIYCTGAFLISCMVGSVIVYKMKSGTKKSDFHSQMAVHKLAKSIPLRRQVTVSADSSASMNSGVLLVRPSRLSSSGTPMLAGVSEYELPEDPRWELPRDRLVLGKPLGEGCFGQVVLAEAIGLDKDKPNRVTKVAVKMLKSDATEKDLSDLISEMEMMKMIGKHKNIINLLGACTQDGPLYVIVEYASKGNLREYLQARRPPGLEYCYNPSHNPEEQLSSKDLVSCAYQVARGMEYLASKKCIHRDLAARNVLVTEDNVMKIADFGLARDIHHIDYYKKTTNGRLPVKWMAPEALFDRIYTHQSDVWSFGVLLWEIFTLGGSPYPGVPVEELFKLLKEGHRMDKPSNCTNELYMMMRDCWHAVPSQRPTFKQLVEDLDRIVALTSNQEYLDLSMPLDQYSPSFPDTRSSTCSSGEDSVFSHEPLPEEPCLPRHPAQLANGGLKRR
Setting [1] is: pre-incubated for 5 to 10 minutes.

Sequence of FGFR2 (P21802 22-821): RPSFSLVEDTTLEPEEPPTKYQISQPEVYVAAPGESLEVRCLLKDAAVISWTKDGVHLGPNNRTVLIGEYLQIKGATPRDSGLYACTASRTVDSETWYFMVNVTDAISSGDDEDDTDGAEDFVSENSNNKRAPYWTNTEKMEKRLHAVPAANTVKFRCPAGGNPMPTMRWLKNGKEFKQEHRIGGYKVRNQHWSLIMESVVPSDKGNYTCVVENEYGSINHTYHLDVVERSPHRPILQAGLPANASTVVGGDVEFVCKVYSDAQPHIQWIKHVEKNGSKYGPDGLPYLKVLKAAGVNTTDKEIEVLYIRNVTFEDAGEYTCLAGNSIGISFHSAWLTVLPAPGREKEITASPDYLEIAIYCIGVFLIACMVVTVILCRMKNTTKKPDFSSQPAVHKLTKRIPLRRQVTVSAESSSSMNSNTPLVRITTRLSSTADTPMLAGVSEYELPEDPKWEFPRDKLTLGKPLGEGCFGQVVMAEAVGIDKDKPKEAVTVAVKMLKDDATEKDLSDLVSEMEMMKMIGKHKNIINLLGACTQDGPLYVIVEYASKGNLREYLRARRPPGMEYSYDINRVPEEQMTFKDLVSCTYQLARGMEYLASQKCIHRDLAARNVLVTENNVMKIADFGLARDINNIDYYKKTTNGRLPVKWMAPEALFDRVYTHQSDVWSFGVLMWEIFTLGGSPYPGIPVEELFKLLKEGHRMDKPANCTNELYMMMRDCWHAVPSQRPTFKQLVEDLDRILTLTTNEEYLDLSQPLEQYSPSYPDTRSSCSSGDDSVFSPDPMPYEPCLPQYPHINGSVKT
Sequence of FGFR3 (P22607 23-806): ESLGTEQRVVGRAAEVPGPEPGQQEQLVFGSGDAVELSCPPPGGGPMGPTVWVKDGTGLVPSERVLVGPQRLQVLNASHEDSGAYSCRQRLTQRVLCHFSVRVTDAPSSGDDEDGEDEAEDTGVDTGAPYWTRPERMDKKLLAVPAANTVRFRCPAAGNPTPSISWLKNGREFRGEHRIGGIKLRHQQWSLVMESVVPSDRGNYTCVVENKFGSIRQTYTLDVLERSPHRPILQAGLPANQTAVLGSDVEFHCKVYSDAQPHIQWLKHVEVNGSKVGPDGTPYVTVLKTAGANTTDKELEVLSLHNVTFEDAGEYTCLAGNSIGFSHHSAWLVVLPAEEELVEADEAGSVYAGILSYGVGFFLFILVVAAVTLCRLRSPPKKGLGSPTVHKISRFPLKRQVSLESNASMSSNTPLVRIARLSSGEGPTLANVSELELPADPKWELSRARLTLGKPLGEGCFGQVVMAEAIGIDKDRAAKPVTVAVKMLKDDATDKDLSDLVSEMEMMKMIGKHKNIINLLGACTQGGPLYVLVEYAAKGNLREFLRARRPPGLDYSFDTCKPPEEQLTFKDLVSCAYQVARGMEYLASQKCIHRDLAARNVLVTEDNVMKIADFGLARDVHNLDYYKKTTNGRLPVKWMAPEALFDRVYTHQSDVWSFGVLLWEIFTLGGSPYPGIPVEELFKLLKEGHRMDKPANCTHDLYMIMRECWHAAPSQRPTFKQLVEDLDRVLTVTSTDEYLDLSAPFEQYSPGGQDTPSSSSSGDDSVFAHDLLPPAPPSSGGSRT
Excerpt for FGFR1: (§1) The enzymes were purchased from Millipore or Invitrogen.
(§2) GraphPad prism3 was used to analyze the data. The IC50 values were derived by fitting the data to the equation for a sigmoidal dose-response with a variable slope. Y=Bottom+(Top-Bottom)/(1+10^((LogIC50-X)*HillSlope)) where X is the logarithm of concentration and Y is the response.
Excerpt for FGFR2: as §1, §2
Excerpt for FGFR3: as §1, §2

For `C=CC(=O)Nc1cc(CN2CCOCC2)cc(-c2cc3c(cn2)CN(c2c(F)c(OC)cc(OC)c2F)C(=O)C32CC2)c1` [Example 11, N-[3-[2′-(2,6-difluoro-3,5-dimethoxyphenyl)-3′-oxo-2′,3′-dihydro-1′H-spiro[cyclopropane-1,4′-[2,7]naphthyridin]-6′-yl]-5-(morpholin-4-ylmethyl)phenyl]acrylamide], the FGFR2/FGFR4 on FGFR2 (setting [1]) and at FGFR2 (pre-incubated for 4 hours) was more than 100 in each case. For the same compound, the FGFR3/FGFR4 at FGFR3 (setting [1]) and on FGFR3 (pre-incubated for 4 hours) was more than 100 in each case. Also, the FGFR1/FGFR4 on FGFR1 (setting [1]) and on FGFR1 (pre-incubated for 4 hours) was more than 100 each time.

As to `C=CC(=O)Nc1cn(CCOC(F)(F)F)nc1-c1cc2c(cn1)CN(c1c(F)c(OC)cc(OC)c1F)C(=O)C21CC1` [Example 33, N-(3-(2′-(2,6-difluoro-3,5-dimethoxyphenyl)-3′-oxo-2′,3′-dihydro-1′H-spiro[cyclopropane-1,4′-[2,7]naphthyridine]-6′-yl)-1-(2-(trifluoromethoxy)ethyl)-1H-pyrazol-4-yl)acrylamide], at FGFR2 (pre-incubated for 4 hours), the FGFR2/FGFR4 is more than 100. Moreover, on FGFR3 (pre-incubated for 4 hours), the FGFR3/FGFR4 is on record as more than 100. Besides, at FGFR1 (pre-incubated for 4 hours), the FGFR1/FGFR4 was more than 100.

Turning to `C=CC(=O)Nc1cc(-c2cc3c(cn2)CN(c2c(F)c(OC)cc(OC)c2F)C(=O)C32CC2)cc(N2CCOCC2)c1` [Example 10, N-{3-[2′-(2,6-difluoro-3,5-dimethoxyphenyl)-3′-oxo-2′,3′-dihydro-1′H-spiro[cyclopropane-1,4′-[2,7]naphthyridin]-6′-yl]-5-morpholin-4-ylphenyl}acrylamide], the FGFR2/FGFR4 at FGFR2 (setting [1]) and on FGFR2 (pre-incubated for 4 hours) was more than 100 throughout. The FGFR3/FGFR4 on FGFR3 (setting [1]) and at FGFR3 (pre-incubated for 4 hours) was more than 100 in each case. The FGFR1/FGFR4 at FGFR1 (setting [1]) and on FGFR1 (pre-incubated for 4 hours) was more than 100 throughout.

For the compound `C=CC(=O)Nc1cnn(CC2CCOCC2)c1-c1cc2c(cn1)CN(c1c(F)c(OC)cc(OC)c1F)C(=O)C21CC1` [Example 24, N-(5-(2′-(2,6-difluoro-3,5-dimethoxyphenyl)-3′-oxo-2′,3′-dihydro-1′H-spiro[cyclopropane-1,4′-[2,7]naphthyridine]-6′-yl)-1-((tetrahydro-2H-pyran-4-yl)methyl)-1H-pyrazol-4-yl)acrylamide], the FGFR2/FGFR4 at FGFR2 (pre-incubated for 4 hours) is given as more than 100. Also, at FGFR3 (pre-incubated for 4 hours), the FGFR3/FGFR4 was more than 100. For the same compound, the FGFR1/FGFR4 on FGFR1 (pre-incubated for 4 hours) is given as more than 100.

`C=CC(=O)Nc1cnn(Cc2ccnn2C)c1-c1cc2c(cn1)CN(c1c(F)c(OC)cc(OC)c1F)C(=O)C21CC1` [Example 26, N-(5-(2′-(2,6-difluoro-3,5-dimethoxyphenyl)-3′-oxo-2′,3′-dihydro-1′H-spiro[cyclopropane-1,4′-[2,7]naphthyridine]-6′-yl)-1-((1-methyl-1H-pyrazol-5-yl)methyl)-1H-pyrazol-4-yl)acrylamide]: the FGFR2/FGFR4 on FGFR2 (pre-incubated for 4 hours) is more than 50. Also, the FGFR3/FGFR4 on FGFR3 (pre-incubated for 4 hours) is more than 100. Also, at FGFR1 (pre-incubated for 4 hours), the FGFR1/FGFR4 is recorded as more than 100.

In the case of `C=CC(=O)Nc1cn[nH]c1-c1cc2c(cn1)CN(c1c(F)c(OC)cc(OC)c1F)C(=O)C21CC1` [Example 14, N-(5-(2′-(2,6-difluoro-3,5-dimethoxyphenyl)-3′-oxo-2′,3′-dihydro-1′H-spiro[cyclopropane-1,4′-[2,7]naphthyridine]-6′-yl)-1H-pyrazol-4-yl)acrylamide], the FGFR2/FGFR4 on FGFR2 (pre-incubated for 4 hours) is given as more than 100. For the same compound, on FGFR3 (pre-incubated for 4 hours), the FGFR3/FGFR4 is on record as more than 100. In addition, on FGFR1 (pre-incubated for 4 hours), the FGFR1/FGFR4 is more than 100.

As for `C=CC(=O)Nc1cc(-c2cc3c(cn2)CN(c2c(F)c(OC)cc(OC)c2F)C(=O)C32CC2)ccc1CN1CCOCC1` [Example 12, N-(5-(2′-(2,6-difluoro-3,5-dimethoxyphenyl)-3′-oxo-2′,3′-dihydro-1′H-spiro[cyclopropane-1,4′-[2,7]naphthyridine]-6′-yl)-2-(morpholinomethyl)phenyl)acrylamide], the FGFR2/FGFR4 at FGFR2 (setting [1]) is recorded as more than 1; on FGFR2 (pre-incubated for 4 hours), more than 25. The FGFR3/FGFR4 on FGFR3 (setting [1]) is listed as more than 1; on FGFR3 (pre-incubated for 4 hours), more than 10. The FGFR1/FGFR4 was more than 10 at FGFR1 (setting [1]) and more than 100 at FGFR1 (pre-incubated for 4 hours).
